Structures are written as SMILES. Structures can show the parent of a compound that is named as a salt.

For experiment [1], the system named is CPP36 liver metastatic CRC patient-derived cells. Kind of experiment: CellTiter-Glo growth inhibition, liver metastatic CRC patient-derived cells CPP36. The conditions noted are these: Homo sapiens; CPP36, 72 h. Format: cell-based. An excerpt:
Patient derived liver metastasis cells (CPP19, 30, 36 and CPP45—see table 1 for clinical descriptions) were maintained in complete DMEM (Gibco) with 10% FBS. Cells were obtained from biopsies provided by CHU-Caremeau (Nimes, France) within an approved protocol. Signed informed consents were obtained from patients prior to samples acquisition in accordance with all ethical and legal aspects. Tumors were washed, minced into fragments (<2 mm^3) and digested with liberase H (0.26 U/mL, Roche) resuspended in Accumax (Sigma-Aldrich). After 2 hours at 37° C., cell suspension was filtered through a […] to obtain a single cell suspension and plated in DMEM medium, supplemented with FBS, glutamine, antibiotics and non-essential aminoacids. When a monolayer of patient-derived tumor cells was formed, cells were detached using trypsin/EDTA and resuspended in DMEM with 10% FBS (for adherent cells) or defined M11 media (for sphere formation). Cells were cultured in a humidified atmosphere at 37° C. and 5% CO2.
Cells were plated at 10^4 cells per well in P96 well plates in DMEM with 10% FBS. After 24 hours, cells were treated with compound 2-3 and cell viability was assessed 72 h post-treatment by CellTiter-Glo® Luminescent Cell Viability Assay (Promega). EC50 were calculated using GraphPad Prism Software v6 (Graphpad Software, Inc La Jolla, Calif.). […]

The test system of experiment [2] is MOLM-14 cell line. Kind of experiment: CellTiter-Glo cell viability / growth inhibition assay, MOLM-14 (Example 5). The note with it: Homo sapiens, 72 h. Format: cell-based. On the procedure: (§1) All cell lines were maintained in medium containing 1% penicillin-streptomycin (Dutscher, P06-07100) and 10% Fetal Bovine Serum (Gibco, W3387L) except 20% for KG-1 cell line and PBMC, and cultured at 37° C. with 5% CO2.
MOLM-14 cell line was maintained in MEM alpha medium (Gibco, 22561-021).
(§2) Cell viability was measured using the CellTiter-Glo® luminescent cell viability assay as described by the manufacturer (Promega, Ref G7571) using an Infinite F200Pro luminometer (Tecan). Briefly, for adherent cells, cells were plated onto 96-well plates (white with clear bottom) in 90 μL of media per well and were allowed to grow overnight before the assay. For cells growing in suspension, cells were plated onto 96-well plates immediately before the assay.
Compounds were added at different concentrations to each well, and cell cultures were incubated for 72 h. Vehicle (H2O) was used as a control, and all compounds were tested in a constant percentage of H2O. After addition of 100 μL of CellTiter-Glo®, luminescence was measured using an Infinite F200Pro (Tecan). EC50 values were determined as the dose of compound required to reduce luminescent values to 50% of the signal obtained for untreated cell cultures. The experimental data were analyzed using a computer program, Graphpad Prism v5 (GraphPad Software, Inc. La Jolla, Calif.).
All experiments were at least done in duplicate and repeated two independent times.

Experiment [3] has as its system Hep3B-Luc cell line. Description: CellTiter-Glo growth inhibition assay, Hep3B-Luc. Format: cell-based. The note with it: Homo sapiens, Hep 3B-Luc, 72 h. On the procedure: Before compound treatment, the compound was dissolved in H2O to make a 10 mM stock solution. The working solutions (5 folds final concentrations) were then prepared with MEM medium (Gibco, 1128319) containing 10% Fetal Bovine Serum (Gibco, 10099141).
Hep3B-Luc cell line (luciferase transfected human liver carcinoma cell line for orthotopic tumor model) was cultured in MEM Medium supplemented with 10% v/v Fetal Bovine Serum (FBS), 1% Penicillin-Streptomycin and maintained at 37° C. with 5% CO2. 800 cells were plated onto 384-well flat clear bottom white (Corning, 3707).
Cells in log-phase are collected and counted. Cell suspensions are added to each well of 384-well plate at 800 cells per well (total volume 40 μl). The margin wells are filled with PBS buffer. Test compound at various concentrations are added in duplicates (add 10 μl 5× compound solutions to the plate). The assay plate is incubated for 72 h in 37° C./5% CO2 incubator. Cell viability was measured using the CellTiter-Glo® luminescent cell viability assay as described by the manufacturer (Promega, Ref G7571). After addition of 100 μL of CellTiter-Glo® reactifs solution, luminescence was measured using a PHERAstar Plus luminometer. Data were recorded by PHERAstar Plus, Data acquisition and analysis were performed using Microsoft Excel program and GraphPad Prism v.6 software.

Experiment [4] relates to KG-1 cell line. Kind of experiment: CellTiter-Glo growth inhibition assay, KG-1. The format is cell-based. The conditions noted are these: Homo sapiens; KG-1, acute myelogenous leukemia, 72 h. On the procedure:
as §1
KG-1 and MV4-11 cell line were maintained in Iscove's modified Dulbecco's medium (Dutscher, L0190).
as §2
Compounds were added at different concentrations to each well, and cell cultures were incubated for 72 h. Vehicle (H2O) was used as a control, and all compounds were tested in a constant percentage of H2O. After addition of 100 μL of CellTiter-Glo®, luminescence was measured using an Infinite F200Pro (Tecan). EC50 values were determined as the dose of compound required to reduce luminescent values to 50% of the signal obtained for untreated cell cultures. The experimental data were analyzed using a computer program, Graphpad Prism v5 (GraphPad Software, Inc. La Jolla, Calif.). […]

For experiment [5], the system named is LI0574 HCC patient derived cells. Description: CellTiter-Glo growth inhibition, HCC patient-derived cells LI0574. Format: cell-based, human. The note with it: Homo sapiens; LI0574, 72 hours. The method, then: (§3) The patient derived Hepatocellular Carcinoma (HCC) cells were maintained in medium respectively described in table 15 containing 1% penicillin-streptomycin (Life Technologies, 15070-063), with a supplements for primary cell culture (PCS) containing hydrocortisone (50 nM), Epidermal Growth Factor (20 ng/ml), β-fibroblast Growth Factor (10 ng/ml), Heparin (2 μg/ml) ITS liquid media supplement (1×) and non-essential amino acid (NEAA, 0.01 mM, 1×). The primary cell were cultured in a humidified atmosphere (95% relative humidity) with 5% CO2 at 37° C.
(§4) The cell growth inhibition assay was performed as described previously in example 5 using the CellTiter-Glo® luminescent cell viability assay as described by the manufacturer (Promega, Ref G7571). The number of cells seeded per well (in 96-Well Flat Clear Bottom Black Polystyrene TC-Treated Microplates, Cat #3340, Corning®) is described in the table 16. A backseal black sticker (Cat #6005189, Perkin Elmer) was placed to the bottom of each plate before recording CellTiter-Glo® luminescence.
(§5) The experimental data are analyzed using a computer program, Graphpad Prism V 5.0 (GraphPad Software, Inc. La Jolla, Calif.) and EC50 values were determined as the dose of compound required to reduce absorbance values to 50% of the signal obtained for vehicle treated cell cultures and were a mean of at least three independent experiments.

In experiment [6] the test system is LI1098 HCC patient derived cells. Description: CellTiter-Glo growth inhibition, HCC patient-derived cells LI1098. Format: cell-based, human. The conditions noted are these: Homo sapiens; LI1098, 72 hours. The method, then: as §3, §4, §5

For the compound `CC(C)(C)NC1CCN(c2cc(NCc3ccc(Cl)cc3)nc3ccccc23)CC1` [Compound 2-3, 2-(4-chlorobenzylamino)-4-(4-tert-butylaminopiperidin-1-yl)-quinoline hydrochloride salt], the concentration giving a half-maximal response (EC50) in experiment [1] amounted to 1450 nM; in experiment [2] (MOLM-14, acute myeloïd leukemia, FLT3-ITD heterozygote+/−) it was 2200 nM; in experiment [3], 1100 nM; in experiment [4] it was 5100 nM; in experiment [5], 2400 nM; in experiment [6], 7000 nM. For the same compound, in experiment [2] (MOLM-14, 4 μM), the viability at 4 µM amounted to 31.8%. The compound also yielded a viability at 10 µM in experiment [2] (MOLM-14, 10 μM) of 0.3%.
